From US12180187B2, “1-phenyl-5-azinylpyrazolyl-3-oxyalkyl acids and their use for controlling unwanted plant growth” (BAYER AKTIENGESELLSCHAFT, priority 2019, dated 2024)

Columns and labels:
POLCO [1] = test: Post-emergence action at 320 g/ha against POLCO; assay type: in vivo, Fallopia convolvulus (Polygonum convolvulus); settings: visual rating about 3 weeks after treatment vs untreated controls
Text: (§1) Accordingly, the compounds of the invention have good herbicidal action against a broad spectrum of weed grasses and broad-leaved weeds and are therefore suitable for controlling unwanted vegetation by the post-emergence method. • b) Seeds of monocotyledonous and dicotyledonous weeds and crop plants are placed in sandy loam in plastic or organic planting pots, covered with soil and cultivated in a greenhouse under controlled growth conditions. 2 to 3 weeks after sowing, the test plants are treated at the one-leaf stage. The compounds of the invention, formulated in the form of wettable powders (WP) or as emulsion concentrates (EC), are then sprayed onto the green parts of the plants as aqueous suspension or emulsion with addition of 0.5% additive at a water application rate of 600 l/ha (converted). After the test plants have been kept in the greenhouse under optimum growth conditions for about 3 weeks, the activity of the preparations is rated visually in comparison to untreated controls. For example, 100% activity=the plants have died, 0% activity=like control plants. Tables 39 to 49 below show the effects of selected compounds of the general formula (I) according to Tables 1 and 2 on various harmful plants and at an application rate corresponding to 320 g/ha, which were obtained by the experimental procedure mentioned above.

AMARE [2] = test: Pre-emergence action at 320 g/ha against AMARE; assay type: in vivo, Amaranthus retroflexus; settings: visual scoring after about 3 weeks vs untreated controls
Outline: (§2)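 Sow seeds, cover with soil, spray soil surface (WP/EC, 0.5% additive, 600 l/ha water), hold in greenhouse ~3 wk, then rate % activity visually against untreated controls.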

LOLRI [3] = test: Post-emergence action against LOLRI, 1.28 kg/ha; assay type: in vivo, Lolium rigidum; settings: dosage 1280 g/ha, visual rating about 3 weeks after treatment vs untreated controls
Outline: (§3)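 Herbicidal action is estimated by eye after about three weeks under optimum greenhouse conditions, on a 0–100% scale against untreated plants. Compounds are applied post-emergence to one-leaf-stage weeds as aqueous WP or EC preparations containing 0.5% additive, sprayed at 600 L/ha.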

ECHCG = test: Pre-emergence action against ECHCG, 1280 g/ha; assay type: in vivo, Echinochloa crus-galli; settings: visual scoring after about 3 weeks vs untreated controls, 100% = plants have died, 0% = like control plants
Outline: (§4)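 Each pot was doubly sown in sandy loam and covered, then its soil surface was treated with compound suspension or emulsion containing 0.5% additive at 600 L/ha water. Plants grew in a greenhouse; effect was rated visually as percentages versus controls after about 3 weeks.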

AMARE [4] = test: Post-emergence action against AMARE, 1.28 kg/ha; assay type: in vivo, Amaranthus retroflexus; settings: dosage 1280 g/ha, visual rating about 3 weeks after treatment vs untreated controls (100% = plants died)
Outline: as §3

STEME [5] = test: Pre-emergence action against STEME, 1280 g/ha; assay type: in vivo, Stellaria media; settings: scored visually after about 3 weeks vs untreated controls (100% = plants have died)
Outline: as §4

SETVI [6] = test: Pre-emergence action at 320 g/ha against SETVI; assay type: in vivo, Setaria viridis; settings: visual scoring after about 3 weeks vs untreated controls
Outline: as §2

POAAN [7] = test: Post-emergence action against POAAN, 1.28 kg/ha; assay type: in vivo, Poa annua; settings: dosage 1280 g/ha, visual rating about 3 weeks after treatment vs untreated controls
Outline: as §3

DIGSA [8] = test: Pre-emergence action at 320 g/ha against DIGSA; assay type: in vivo, Digitaria sanguinalis; settings: visual scoring after about 3 weeks vs untreated controls
Outline: as §2

VERPE [9] = test: Post-emergence action against VERPE, 1.28 kg/ha; assay type: in vivo, Veronica persica; settings: dosage 1280 g/ha, visual rating about 3 weeks after treatment vs untreated controls (100% = plants died)
Outline: as §3

STEME [10] = test: Pre-emergence action at 320 g/ha against STEME; assay type: in vivo, Stellaria media; settings: greenhouse, scored visually after about 3 weeks vs untreated controls, 100% = plants have died, 0% = like control plants
Text: b) Seeds of monocotyledonous and dicotyledonous weed plants and crop plants are placed in plastic or organic planting pots and covered with soil. The compounds of the invention, formulated in the form of wettable powders (WP) or as emulsion concentrates (EC), are then applied onto the surface of the covering soil as aqueous suspension or emulsion with addition of 0.5% additive at a water application rate of 600 l/ha (converted). After the treatment, the pots are placed in a greenhouse and kept under good growth conditions for the trial plants. After about 3 weeks, the effect of the preparations is scored visually in comparison with untreated controls as percentages. For example, 100% activity=the plants have died, 0% activity=like control plants. Tables 13 to 26 below show the effects of selected compounds of the general formula (I) on various harmful plants and at an application rate corresponding to 320 g/ha, which were obtained by the experimental procedure mentioned above.

LOLRI [11] = test: Pre-emergence action against LOLRI, 1280 g/ha; assay type: in vivo, Lolium rigidum; settings: visual scoring after about 3 weeks vs untreated controls, 100% = plants have died, 0% = like control plants
Outline: as §4

SETVI [12] = test: Pre-emergence action against SETVI, 1280 g/ha; assay type: in vivo, Setaria viridis; settings: visual scoring after about 3 weeks vs untreated controls, 100% = plants have died, 0% = like control plants
Outline: as §4

VERPE [13] = test: Pre-emergence action against VERPE, 1280 g/ha; assay type: in vivo, Veronica persica; settings: scored visually after about 3 weeks vs untreated controls (100% = plants have died)
Outline: as §4

SETVI [14] = test: Post-emergence action against SETVI, 1.28 kg/ha; assay type: in vivo, Setaria viridis; settings: dosage 1280 g/ha, visual rating about 3 weeks after treatment vs untreated controls
Outline: as §3

AMARE [15] = test: Pre-emergence action against AMARE, 1280 g/ha; assay type: in vivo, Amaranthus retroflexus; settings: scored visually after about 3 weeks vs untreated controls (100% = plants have died)
Outline: as §4

POLCO [16] = test: Pre-emergence action at 320 g/ha against POLCO; assay type: in vivo, Fallopia convolvulus (Polygonum convolvulus); settings: visual scoring after about 3 weeks vs untreated controls
Outline: as §2

MATIN [17] = test: Post-emergence action against MATIN, 1.28 kg/ha; assay type: in vivo, Tripleurospermum inodorum (Matricaria inodora); settings: dosage 1280 g/ha, visual rating about 3 weeks after treatment vs untreated controls (100% = plants died)
Outline: as §3

HORMU = test: Post-emergence action at 320 g/ha against HORMU; assay type: in vivo, Hordeum murinum; settings: visual rating about 3 weeks after treatment vs untreated controls
Text: as §1

VIOTR [18] = test: Pre-emergence action at 320 g/ha against VIOTR; assay type: in vivo, Viola tricolor; settings: dosage 320 g/ha
Outline: as §2

POAAN [19] = test: Pre-emergence action against POAAN, 1280 g/ha; assay type: in vivo, Poa annua; settings: visual scoring after about 3 weeks vs untreated controls, 100% = plants have died, 0% = like control plants
Outline: as §4

STEME [20] = test: Post-emergence action against STEME, 1.28 kg/ha; assay type: in vivo, Stellaria media; settings: dosage 1280 g/ha, visual rating about 3 weeks after treatment vs untreated controls (100% = plants died)
Outline: as §3

AVEFA = test: Post-emergence action at 320 g/ha against AVEFA; assay type: in vivo; settings: visual rating about 3 weeks after treatment vs untreated controls
Outline: (§5)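 Activity is a visual rating against untreated controls, with 0% like control and 100% dead plants, made about 3 weeks after treatment. Plants grown in sandy loam in the greenhouse received a post-emergence spray at the one-leaf stage of 320 g/ha, formulated as WP or EC with 0.5% additive in 600 l/ha water.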

ABUTH = test: Post-emergence action against ABUTH, 1.28 kg/ha; assay type: in vivo, Abutilon theophrasti; settings: dosage 1280 g/ha, visual rating about 3 weeks after treatment vs untreated controls (100% = plants died)
Outline: as §3

DIGSA [21] = test: Post-emergence action against DIGSA, 1.28 kg/ha; assay type: in vivo, Digitaria sanguinalis; settings: dosage 1280 g/ha, visual rating about 3 weeks after treatment vs untreated controls
Outline: as §3

VIOTR [22] = test: Post-emergence action at 320 g/ha against VIOTR; assay type: in vivo, Viola tricolor; settings: visual rating about 3 weeks after treatment vs untreated controls
Text: as §1

MATIN [23] = test: Pre-emergence action against MATIN, 1280 g/ha; assay type: in vivo, Tripleurospermum inodorum (Matricaria inodora); settings: scored visually after about 3 weeks vs untreated controls (100% = plants have died)
Outline: as §4

SETVI [24] = test: Post-emergence action at 320 g/ha against SETVI; assay type: in vivo, Setaria viridis; settings: visual rating about 3 weeks after treatment vs untreated controls
Text: as §1

DIGSA [25] = test: Pre-emergence action against DIGSA, 1280 g/ha; assay type: in vivo, Digitaria sanguinalis; settings: visual scoring after about 3 weeks vs untreated controls, 100% = plants have died, 0% = like control plants
Outline: as §4

ALOMY = test: Post-emergence action against ALOMY, 320 g/ha; assay type: in vivo, Alopecurus myosuroides; settings: dosage 320 g/ha, visual rating about 3 weeks after treatment vs untreated controls (100% = plants died)
Outline: as §5

COC(=O)C(C)Oc1nn(-c2ccccc2)c(-c2ccnc(Cl)c2)c1Cl (stereo not drawn) [VIII-001]
80%: Post-emergence action against HORMU in % (HORMU) | Post-emergence action against AVEFA in % (AVEFA) | Post-emergence action against VIOTR in % (VIOTR [22]) | Post-emergence action against SETVI in % (SETVI [24])
90%: Post-emergence action against POLCO in % (POLCO [1]) | Pre-emergence action against AMARE in % (AMARE [2]) | Post-emergence action against LOLRI (LOLRI [3]) | Post-emergence action against AMARE (AMARE [4]) | Pre-emergence action against STEME (STEME [5]) | Pre-emergence action at 320 g/ha against STEME in % (STEME [10]) | Post-emergence action against SETVI (SETVI [14]) | Pre-emergence action against AMARE (AMARE [15]) | Pre-emergence action against POLCO in % (POLCO [16]) | Post-emergence action against MATIN (MATIN [17]) | Pre-emergence action against VIOTR in % (VIOTR [18]) | Post-emergence action against ABUTH (ABUTH) | Post-emergence action against DIGSA (DIGSA [21]) | Pre-emergence action against MATIN (MATIN [23]) | Pre-emergence action against DIGSA (DIGSA [25]) | Post-emergence action against ALOMY (ALOMY)
100%: Pre-emergence action against ECHCG (ECHCG) | Pre-emergence action against SETVI in % (SETVI [6]) | Post-emergence action against POAAN (POAAN [7]) | Pre-emergence action against DIGSA in % (DIGSA [8]) | Post-emergence action against VERPE (VERPE [9]) | Pre-emergence action against LOLRI (LOLRI [11]) | Pre-emergence action against SETVI (SETVI [12]) | Pre-emergence action against VERPE (VERPE [13]) | Pre-emergence action against POAAN (POAAN [19]) | Post-emergence action against STEME (STEME [20])
